In patent US7247653B2, “Pharmaceutical composition” (Takeda Pharmaceutical Company Limited, priority 2000, dated 2007):
Values after ≈ are worked out from the molar mass of the structure shown.

Experiments:
Format in all cases: physicochemical
[1] = Solubility of compound 72 in polyoxyethylene glycerol triricinoleate 35/ethanol solution (Experimental Example 1); conditions: compound 72 (5 mg) in 50 μl polyoxyethylene glycerol triricinoleate 35/ethanol (w/w): 20/80 (Formulation 1), 65/35 (2), 100/0 (3)
Experimental: Polyoxyethylene glycerol triricinoleate 35/ethanol solution (50 μl) at a ratio (weight ratio) shown in Table 7 was added to compound 72 (5 mg), the mixture was stirred and the solubility was confirmed. The compound 72 dissolved at any mixing ratio, affording a clear solution.

[2] = Solubility of compound 72 in 40% aqueous 2-hydroxypropyl-β-cyclodextrin (Experimental Example 8); conditions: HP-β-CyD concentration 40% aqueous solution
Experimental: 40% Aqueous solution of 2-hydroxypropyl-β-cyclodextrin (hereinafter abbreviated as HP-β-CyD) (1 ml) was added to compound 72 (5 mg), and the solubility was confirmed by sonication and vortex mixing. When not dissolved, 40% HP-β-CyD solution (1 ml) was further added, and solubility was confirmed after sonication and vortex mixing in the same manner. The concentration at the time of dissolution was taken as solubility.

[3] = Solubility of compound 72 in aqueous maltosyl-β-cyclodextrin, HPLC method (Experimental Example 9); conditions: 25° C., 3 hr shaking
Experimental: An aqueous solution of maltosyl-β-cyclodextrin (hereinafter abbreviated as G2-β-CyD) at a concentration shown in Table 18 was added to compound 72 (100 mg) and the mixture was shaken at 25° C. for 3 hr. The solution was filtrated through a 0.45 μm filter, and the solubility of compound 72 was quantitatively determined by HPLC method.

[4] = Solubility of compound 72 in polyoxyethylene hydrogenated castor oil 50/ethanol solution (Experimental Example 4)
Experimental: Polyoxyethylene hydrogenated castor oil 50/ethanol solution (50 μl) at a ratio (weight ratio) shown in Table 11 was added to compound 72 (5 mg), the mixture was stirred and the solubility was confirmed. The compound 72 dissolved at any mixing ratio, affording a clear solution.

[5] = Solubilizing effect of solubilizer on compound 72 (Comparative Example 1): stepwise solvent addition, sonication and vortex mixing
Experimental: Solubilizing Effect of Solubilizer on Compound 72
The solvent (1 ml) shown in Table 6 was added to compound 72 (5 mg), and solubility was confirmed after sonication and vortex mixing. When not dissolved, the solvent (1 ml) was further added, and solubility was confirmed after sonication and vortex mixing in the same manner. The concentration at the time of dissolution was taken as solubility.

Structure (SMILES): CCOC(=O)C1=CCCCC1S(=O)(=O)Nc1ccc(F)cc1Cl (stereo not drawn) [compound 72, d-ethyl 6-[N-(2-chloro-4-fluorophenyl)sulfamoyl]-1-cyclohexene-1-carboxylate]
- Solubility [1]: not less than 100 mg/ml
- Solubility (mg/ml) [2]: About 1.7 mg/ml
- Solubility ([3]; G2-β-CyD concentration 10%): 4.9 mg/mL (≈ 13.5 mM)
- Solubility ([3]; G2-β-CyD concentration 20%): 13.0 mg/mL (≈ 35.9 mM)
- Solubility ([3]; G2-β-CyD concentration 40%): 31.7 mg/mL (≈ 87.6 mM)
- Solubility ([4]; compound 72 (5 mg) in 50 μl polyoxyethylene hydrogenated castor oil 50/ethanol (w/w) 20/80): Not less than 100 mg/ml
- Solubility ([4]; compound 72 (5 mg) in 50 μl polyoxyethylene hydrogenated castor oil 50/ethanol (w/w) 65/35): Not less than 100 mg/ml
- solubility of compound 72 in the solvent used ([4]; polyoxyethylene hydrogenated castor oil 50/ethanol, any mixing ratio of Table 11): not less than 100 mg/ml
- Solubility ([5]; solvent 10% Pluronic F68 (polyoxyethylene(160)polyoxypropylene(30)glycol), lower concentrations not examined): Not more than 0.5 mg/ml
- Solubility ([5]; solvent 10% ethanol, lower concentrations not examined): Not more than 0.5 mg/ml
- Solubility ([5]; solvent 10% nicotinamide, lower concentrations not examined): Not more than 0.5 mg/ml
- Solubility ([5]; solvent 10% sodium desoxycholate): about 0.7 mg/ml
- Solubility ([5]; solvent 10% sodium salicylate, lower concentrations not examined): Not more than 0.5 mg/ml
- Solubility ([5]; solvent water): 0.013 mg/mL (≈ 0.0359 mM)
